Assay results published in PubChem BioAssay (NCI).
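Test compounds were applied to cells in 96-well plates for 48 hours at 5 doses. Abbreviation: GI50, concentration required for 50% inhibition of growth. Definition used: TGI = concentration required for complete inhibition of growth.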

How the values were obtained:
Experiment in all cases: NCI tumour cell line growth inhibition, 48 h
786-0 renal = tested on: 786-0 renal
A498 renal = tested on: A498 renal
A549 NSCLC = tested on: A549 NSCLC
ACHN renal = tested on: ACHN renal
BT-549 breast = tested on: BT-549 breast
CAKI-1 renal = tested on: CAKI-1 renal
CCRF-CEM leukemia = tested on: CCRF-CEM leukemia
COLO 205 colon = tested on: COLO 205 colon
DU-145 prostate = tested on: DU-145 prostate
EKVX NSCLC = tested on: EKVX NSCLC
HCC-2998 colon = tested on: HCC-2998 colon
HCT-116 colon = tested on: HCT-116 colon
HCT-15 colon = tested on: HCT-15 colon
HL-60(TB) leukemia = tested on: HL-60(TB) leukemia
HOP-62 NSCLC = tested on: HOP-62 NSCLC
HOP-92 NSCLC = tested on: HOP-92 NSCLC
HS 578T breast = tested on: HS 578T breast
HT29 colon = tested on: HT29 colon
IGROV1 ovarian = tested on: IGROV1 ovarian
K-562 leukemia = tested on: K-562 leukemia
KM12 colon = tested on: KM12 colon
LOX IMVI melanoma = tested on: LOX IMVI melanoma
M14 melanoma = tested on: M14 melanoma
MALME-3M melanoma = tested on: MALME-3M melanoma
MCF7 breast = tested on: MCF7 breast
MDA-MB-231 breast = tested on: MDA-MB-231 breast
MDA-MB-435 = tested on: MDA-MB-435
MDA-MB-468 breast = tested on: MDA-MB-468 breast
MOLT-4 leukemia = tested on: MOLT-4 leukemia
NCI-H226 lung = tested on: NCI-H226 lung

Question: `Nc1nc(Nc2ccc(Cl)cc2)n(Cc2cccc(Br)c2)n1` was tested. Which GI50 (786-0 renal) did it give?
Answer: 34.9 µM

Question: And the TGI (786-0 renal)?
Answer: > 100 µM

Question: And the GI50 (A498 renal)?
Answer: 26.7 µM

Question: And the TGI (A498 renal)?
Answer: 85.9 µM

Question: What about the GI50 (A549 NSCLC) of the same compound?
Answer: 32.9 µM

Question: What about the TGI (A549 NSCLC) of the same compound?
Answer: > 100 µM

Question: What about the GI50 (ACHN renal) of the same compound?
Answer: 29.3 µM

Question: And the TGI (ACHN renal)?
Answer: > 100 µM

Question: And the GI50 (BT-549 breast)?
Answer: 38.8 µM

Question: And the TGI (BT-549 breast)?
Answer: 92 µM

Question: What about the GI50 (CAKI-1 renal) of the same compound?
Answer: 25.9 µM

Question: What about the TGI (CAKI-1 renal) of the same compound?
Answer: > 100 µM

Question: What about the GI50 (CCRF-CEM leukemia) of the same compound?
Answer: 36.8 µM

Question: And the TGI (CCRF-CEM leukemia)?
Answer: > 100 µM

Question: What about the GI50 (COLO 205 colon) of the same compound?
Answer: 37.4 µM

Question: And the TGI (COLO 205 colon)?
Answer: > 100 µM

Question: What about the GI50 (DU-145 prostate) of the same compound?
Answer: 41.1 µM

Question: And the TGI (DU-145 prostate)?
Answer: > 100 µM

Question: What about the GI50 (EKVX NSCLC) of the same compound?
Answer: 25.2 µM

Question: What about the TGI (EKVX NSCLC) of the same compound?
Answer: > 100 µM

Question: What about the GI50 (HCC-2998 colon) of the same compound?
Answer: 27 µM

Question: And the TGI (HCC-2998 colon)?
Answer: > 100 µM

Question: And the GI50 (HCT-116 colon)?
Answer: 31.3 µM

Question: And the TGI (HCT-116 colon)?
Answer: > 100 µM

Question: What about the GI50 (HCT-15 colon) of the same compound?
Answer: 27 µM

Question: And the TGI (HCT-15 colon)?
Answer: > 100 µM

Question: What about the GI50 (HL-60(TB) leukemia) of the same compound?
Answer: 24.6 µM

Question: What about the TGI (HL-60(TB) leukemia) of the same compound?
Answer: 71.8 µM

Question: What about the GI50 (HOP-62 NSCLC) of the same compound?
Answer: 49 µM

Question: What about the TGI (HOP-62 NSCLC) of the same compound?
Answer: > 100 µM

Question: And the GI50 (HOP-92 NSCLC)?
Answer: 19.4 µM

Question: And the TGI (HOP-92 NSCLC)?
Answer: 63.8 µM

Question: And the GI50 (HS 578T breast)?
Answer: 24.4 µM

Question: And the TGI (HS 578T breast)?
Answer: 96.3 µM

Question: What about the GI50 (HT29 colon) of the same compound?
Answer: 35.6 µM

Question: What about the TGI (HT29 colon) of the same compound?
Answer: > 100 µM

Question: And the GI50 (IGROV1 ovarian)?
Answer: 30.7 µM

Question: And the TGI (IGROV1 ovarian)?
Answer: > 100 µM

Question: What about the GI50 (K-562 leukemia) of the same compound?
Answer: 28 µM

Question: What about the TGI (K-562 leukemia) of the same compound?
Answer: > 100 µM

Question: What about the GI50 (KM12 colon) of the same compound?
Answer: 33.3 µM

Question: And the TGI (KM12 colon)?
Answer: > 100 µM

Question: And the GI50 (LOX IMVI melanoma)?
Answer: 17.2 µM

Question: What about the TGI (LOX IMVI melanoma) of the same compound?
Answer: 35.9 µM

Question: What about the GI50 (M14 melanoma) of the same compound?
Answer: 29.5 µM

Question: What about the TGI (M14 melanoma) of the same compound?
Answer: > 100 µM

Question: And the GI50 (MALME-3M melanoma)?
Answer: 21.5 µM

Question: And the TGI (MALME-3M melanoma)?
Answer: 71.2 µM

Question: What about the GI50 (MCF7 breast) of the same compound?
Answer: 25.1 µM

Question: And the TGI (MCF7 breast)?
Answer: > 100 µM

Question: What about the GI50 (MDA-MB-231 breast) of the same compound?
Answer: 30.5 µM

Question: What about the TGI (MDA-MB-231 breast) of the same compound?
Answer: > 100 µM

Question: What about the GI50 (MDA-MB-435) of the same compound?
Answer: 19 µM

Question: And the TGI (MDA-MB-435)?
Answer: 42.2 µM

Question: What about the GI50 (MDA-MB-468 breast) of the same compound?
Answer: 16.8 µM

Question: And the TGI (MDA-MB-468 breast)?
Answer: 45.3 µM

Question: And the GI50 (MOLT-4 leukemia)?
Answer: 25.6 µM

Question: What about the TGI (MOLT-4 leukemia) of the same compound?
Answer: > 100 µM

Question: And the GI50 (NCI-H226 lung)?
Answer: 25.3 µM
